Legend:
VKOR [1] = target: T1, VKOR (Homo sapiens, UniProt Q9BQB6); assay: Warfarin sensitivity of VKOR (mGC11276) expressed in Sf9 insect cells; assay type: biochemical
T1 construct: from tissue; host or cells: patients on warfarin (in vivo); genomic DNA from whole blood
Procedure: FIG. 4. VKOR activity was detected when mGC_11276 was expressed in Sf9 insect cells. ˜1×10^6 cells were used in this assay. […] Blank Sf9 cells served as a negative control and A549 cells as a reference.
siRNA transfected A549 cells were trypsinized and washed twice with cold PBS. 1.5×10^7 cells were taken for each VKOR assay. 200 μL buffer D (250 mM Na2HPO4—NaH2PO4, 500 mM KCI, 20% glycerol and 0.75% CHAPS, pH 7.4) was added to the cell pellet, followed by sonication of the cell lysate. For assays of solubilized microsomes, microsomes were prepared from 2×10^9 cells as described (Lin et al. (2002) “The putative vitamin K-dependent gamma-glutamyl carboxylase internal propeptide appears to be the propeptide binding site” J Biol Chem 277:28584-91); 10 to 50 μL of solubilized microsomes were used for each assay. Vitamin K epoxide was added to the concentration indicated in the figure legends and DTT was added to 4 mM to initiate the reaction. […] 500 μL hexane was added and the mixture was vortexed vigorously for 1 minute to extract the vitamin K and KO. After 5 minutes centrifugation, the upper organic layer was transferred to a 5-mL brown vial and dried with N2. 150 μL HPLC buffer, acetonitrile:isopropanol:water (100:7:2), was added to dissolve the vitamin K and KO and the sample was analyzed by HPLC on an A C-18 column (Vydac, cat#218TP54). […]

VKOR [2] = target: T1, VKOR; assay: Correlation of VKOR gene SNPs with warfarin maintenance dose in patients; assay type: in vivo
Text: The most prevalent isoform of the VKOR gene is about 4 kb long, has three exons and encodes an enzyme of 163 amino acids with a mass of 18.4 kDa.
Subjects were obtained from the UNC Coagulation Clinic in the Ambulatory Care Center. Informed consent was obtained by a trained genetic counselor. Subjects not fluent in English were excluded because of the lack of translators and the requirement for consent.
Genomic DNAs were extracted from the whole blood of subjects using QIAamp DNA Blood Mini Kit (QIAGEN cat#51104). The DNA concentration was adjusted to 10 ng/μL.
Approximately 10 ng of DNA was used for polymerase chain reaction (PCR) assays. The primers used to amplify the VKOR gene were: Exon 1-5′ […] (SEQ ID NO:29) and Exon 1-3′ […] (SEQ ID NO:30) for the 5′-UTR and Exon 1 region; Exon 2-5′ […] (SEQ ID NO:31) and Exon 2-3′ […] (SEQ ID NO:32) for the Exon 2 region; and Exon 3-5′ […] (SEQ ID NO:33) and Exon 3-3′ […] (SEQ ID NO:34) for the Exon3 and 3′-UTR region. Automated high throughput capillary electrophoresis DNA sequencing was used for detecting SNPs in the VKOR gene.
The assay reagents for SNP genotyping were from the Assay-by-Design™ service (Applied Biosystems, cat#4332072). The primers and probes (FAM™ and VIC™ dye-labeled) were designed using Primer Express software and were synthesized in an Applied Biosystems synthesizer. The primer pairs for each SNP are located at the upstream/downstream position of the SNP site and can generate less than 100 bp length of a DNA fragment in the PCR reaction. The FAM™ and VIC™ dye-labeled probes were designed to cover the SNP sites with a length of 15-16 nt.
The 2× TaqMan™ Universal PCR Master Mix, No AmpErase UNG (Applied Biosystems, cat#4324018) was used in the PCR reactions. Forty cycles of real-time PCR were performed in an Opticon II (MJ Research) machine. There was a 10 minute 95° C. preheat followed by 92° C. for 15 sec, 60° C. for 1 min. and then a plate reading. The results were read according to the signal value of FAM and VIC dye.
The difference of average dose between different genotypes was compared by analysis of variance (ANOVA) using SAS version 8.0 (SAS, Inc., Cary, N.C.). A two-sided p value less than 0.05 was considered significant.
Each marker was first analyzed independently.
The three VKOR SNPs are located within 2 kb distance of one another and are expected to be closely linked.

T1 sequence (Q9BQB6 whole entry): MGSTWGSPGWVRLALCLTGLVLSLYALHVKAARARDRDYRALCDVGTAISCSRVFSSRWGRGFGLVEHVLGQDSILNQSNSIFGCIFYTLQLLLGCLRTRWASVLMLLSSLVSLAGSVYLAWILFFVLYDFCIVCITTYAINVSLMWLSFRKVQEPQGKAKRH

warfarin sensitivity of VKOR activity (VKOR [1]; Sf9 cells transfected with mGC11276 cDNA): warfarin sensitive
warfarin sensitivity of VKOR activity (VKOR [1]; microsomes from Sf9 cells expressing VKOR, 60 μM KO, 30° C., 15 minutes): warfarin-sensitive
average warfarin dose (VKOR [2]; patients heterozygous for vk2581, n=17): 35.19±3.73 mg per week
average warfarin dose (VKOR [2]; patients heterozygous for vk3294, n=25): 41.68±4.92 mg per week
average warfarin dose (VKOR [2]; patients heterozygous for vk4769, n=19): 44.48±4.80 mg per week
average warfarin dose (VKOR [2]; patients homozygous for vk2581, n=15): 31.14±6.2 mg per week
average warfarin dose (VKOR [2]; patients homozygous for vk3294, n=22): 47.73±2.75 mg per week
average warfarin dose (VKOR [2]; patients homozygous for vk4769, n=12): 47.56±3.86 mg per week
warfarin dosage (VKOR [2]; patients with haplotype aaBBCC): 25.29±3.05
average warfarin dose (VKOR [2]; patients with vk2581 wild type allele, n=26): 50.19±3.20 mg per week
average warfarin dose (VKOR [2]; patients with vk4769 SNP wild type, n=27): 35.35±4.01 mg per week
average warfarin dose (VKOR [2]; patients with wild-type vk3294 allele, n=11): 25.29±3.05 mg per week
warfarin dosage (VKOR [2]; subjects with haplotype AAbbcc, n=7): 48.98±3.93
Compound: CC(=O)CC(c1ccccc1)c1c(O)c2ccccc2oc1=O (stereo not shown) [warfarin]

Source: US9441208B2, “Methods and compositions for producing vitamin K dependent proteins” (The University of North Carolina at Chapel Hill, priority 2003, dated 2016)
